One experiment deals with Jeko-1 tumor cells. In words: Annexin V / 7-AAD flow cytometry of Jeko-1 tumor cells treated with TRAIL delivery systems. It counts as cell-based. The note with it: camptothecin 100 nM, percentage of cells. On the procedure: (§1) Briefly, 100K live Jeko-1 or Jurkat cells were plated in RPMI media containing 10% Fetal bovine serum and 1% PenStrep in 100 μL volume.
(§2) Synthetic cytotoxic cells and equivalent total molecules of soluble TRAIL were plated 8 hours post seeding of tumor cells in 100 μL total volume. Amount of soluble TRAIL per well to match the amount of microsphere or bead-bound TRAIL was calculated as follows. Assuming 150K TRAIL molecules per microsphere/bead and 1e^6 microsphere/bead per well, 1.5e^11 soluble TRAIL molecules per well were used, which was calculated to be equivalent to 23 ng soluble TRAIL per well.
(§3) Twenty-four and forty-eight hours post incubation, cells were harvested and stained with Annexin V and 7-AAD. Anti-CD19 and Anti-CD3 antibodies were used to separate Jeko-1 cells from beads and Jurkat cells from beads, respectively. While Jeko-1 cells are CD19-expressing B-cells that are TRAIL-sensitive, Jurkat cells are CD3-expressing T cells that have low-moderate sensitivity to TRAIL. Determination of stage of cell death and % apoptotic cells were determined from the gating strategy outlined in FIG. 8. Samples were plated in duplicates and all sample acquisition was performed on the Cytoflex Beckman Coulter Flow Cytometer 24 hours and 48 hours post treatment of tumor cells with treatment conditions. Data analysis was further processed on FlowJo™ v10 software.
On the technique in general: In flow cytometry, cells or beads pass a laser one at a time.

A further experiment has as its system Jurkat tumor cells. In words: Annexin V / 7-AAD flow cytometry of Jurkat tumor cells treated with TRAIL delivery systems. It counts as cell-based. The note with it: camptothecin 100 nM, percentage of cells. On the procedure:
as §1, §2, §3

[1] abbreviates: Table 4A, Jeko-1, 24 Hrs., TRAIL equivalent to 1.5e^11 molecules per well.

For `CC[C@@]1(O)C(=O)OCc2c1cc1n(c2=O)Cc2cc3ccccc3nc2-1` [Camptothecin, camptothecin], in the experiment on Jeko-1 tumor cells (setting [1]), the “Early Stage Apoptotic (7-AAD−/Annexin V+)” value (from here on “Early Stage Apoptotic”) was determined as 56.5, the “Late Stage Apoptotic (7-AAD+/Annexin V+)” value is recorded as 39.5, the “Live Cells (7-AAD−/Annexin V−)” value was 3.88 and the “Necrotic (7-AAD+/Annexin V−)” value is listed as 0.077. In the experiment with Jeko-1 tumor cells (Table 4B, Jeko-1, 48 Hrs.), the “Early Stage Apoptotic” value was determined as 7.64, the “Late Stage Apoptotic (7-AAD+/Annexin V+)” value stood at 91.0, the “Live Cells (7-AAD−/Annexin V−)” value is reported as 1.19 and the “Necrotic (7-AAD+/Annexin V−)” value was 0.13. Moreover, in the experiment on Jurkat tumor cells (Table 5A, 24 Hrs.), the “Early Stage Apoptotic” value is 59.8, the “Late Stage Apoptotic (7-AAD+/Annexin V+)” value stood at 26.9, the “Live Cells (7-AAD−/Annexin V−)” value was 13.1 and the “Necrotic (7-AAD+/Annexin V−)” value is recorded as 0.13. Besides, in the experiment with Jurkat tumor cells (Table 5B, 48 Hrs.), the “Early Stage Apoptotic” value is listed as 25.5, the “Late Stage Apoptotic (7-AAD+/Annexin V+)” value was 69.8, the “Live Cells (7-AAD−/Annexin V−)” value is recorded as 3.36 and the “Necrotic (7-AAD+/Annexin V−)” value stood at 1.33.

For the origin of these results see US20260151504A1, “SYNTHETIC CELLS COMPRISING TNF-RELATED APOPTOSIS-INDUCING LIGAND (TRAIL) AND METHODS OF USING THE SAME” (Slingshot Biosciences, Inc., priority 2023, published 2026).
